Data set [1] can be described thus: Inhibition of Hepatitis C virus NS3 protease. On the set-up: species or system Hepacivirus hominis.
Data set [2] in a line: Half life in monkey liver microsomes. Format: ADME, Macaca mulatta, Microsome. The following applies: rhesus monkey.
The nature of data set [3]: Half life in rat liver microsomes. It counts as ADME, Microsome. Background: Liver microsomes are a subcellular fraction often used to study metabolism.
A short description of data set [4]: Half life in dog liver microsomes. Format: ADME, Canis lupus familiaris, Microsome.
Data set [5] in a line: Half life in human liver microsomes. Format: ADME, Microsome.
Data set [6] deals with Hepatitis C virus. Nature of the data set: Antiviral activity against Hepatitis C virus. Format: functional, organism-based, Hepacivirus hominis.
Data set [7] in a line: Permeability across basolateral to apical side in human Caco2 cells. It counts as ADME, cell-based. The following applies: Caco-2, read-out: permeability.
Data set [8] can be described thus: Permeability across apical to basolateral side in human Caco2 cells. To be noted: Caco-2, read-out: permeability. Format: ADME, cell-based. In general terms: Caco-2 cells form a polarised layer with tight junctions and transporters.
Data set [9] can be described thus: Bioavailability in rat at 2 mg/kg, […]. Format: ADME, organism-based. The following applies: in vivo.
A short description of data set [10]: Clearance in rat at 2 mg/kg, iv. Format: ADME, organism-based. On the set-up: dose 2 mg/kg, route intravenous. To be noted: in vivo.
A short description of data set [11]: Volume of distribution at steady state in rat at 2 mg/kg, iv. Format: ADME, organism-based. On the set-up: dose 2 mg/kg, route intravenous. The following applies: in vivo, read-out: Vdss.
Data set [12] concerns Rattus norvegicus. Nature of the data set: AUC (0 to infinity) in rat at 5 mg/kg, po. Format: ADME, organism-based, Plasma. On the set-up: time infinity, dose 5 mg/kg, route oral. To be noted: in vivo.
The nature of data set [13]: Half life in rat at 2 mg/kg, iv. It counts as ADME, organism-based. On the set-up: dose 2 mg/kg, route intravenous. To be noted: in vivo.
In data set [14] the test system is Rattus norvegicus. Nature of the data set: Cmax in rat at 5 mg/kg, po. Format: ADME, organism-based. On the set-up: dose 5 mg/kg, route oral. To be noted: in vivo.
Data set [15] in a line: Solubility of the compound at pH 7.2. It counts as physicochemical. The following applies: buffer.
Data set [16] in a line: Plasma concentration in rat at 5 mg/kg measured at 1 hr. It counts as ADME, organism-based. On the set-up: dose 5 mg/kg.
Data set [17] deals with Hepatitis C virus. Nature of the data set: Antiviral activity against Hepatitis C virus genotype 1b infected in human Huh-9-13 cells by replicon assay. It counts as functional, organism-based, Hepacivirus hominis. A general note: In antiviral work, replicon cells carry a viral genome segment that copies itself.

Results on 16 compounds are retold here after ChEMBL document CHEMBL2401615, “Peptide backbone replacement of hepatitis C virus NS3 serine protease C-terminal cleavage product analogs: discovery of potent succinamide inhibitors” (Bioorg Med Chem Lett, 2013).

pEC50, pIC50: −log10 of the molar value. Values after ≈ are worked out from the molar mass of the structure shown.

As a reminder, the pIC50 is the negative decadic logarithm of the IC50, by convention in mol/L. `C=C[C@@H]1C[C@]1(NC(=O)[C@@H]1C[C@@H](Oc2cc(-c3csc(NC(C)=O)n3)nc3cc(OC)ccc23)CN1C(=O)[C@@H](NC(=O)OC(C)(C)C)C(C)(C)C)C(=O)O`: the pIC50 in data set [1] was 7.89.
Same read-out and setting: the result for `C=C[C@@H]1C[C@]1(NC(=O)[C@@H]1C[C@@H](Oc2cc(-c3csc(NC(C)=O)n3)nc3cc(OC)ccc23)CN1C(=O)[C@@H](OC(=O)NC(C)(C)C)C(C)(C)C)C(=O)O` reads 6.85; that for `C=C[C@@H]1C[C@]1(NC(=O)[C@@H]1C[C@@H](Oc2cc(-c3csc(NC(C)=O)n3)nc3cc(OC)ccc23)CN1C(=O)[C@@H](NC(=O)NC(C)(C)C)C(C)(C)C)C(=O)O`, 8.59.
As for `C=C[C@@H]1C[C@]1(NC(=O)[C@@H]1C[C@@H](Oc2cc(-c3csc(NC(C)=O)n3)nc3cc(OC)ccc23)CN1C(=O)[C@@H](CC(=O)NC(C)(C)C)C(C)(C)C)C(=O)O`, the pIC50 in data set [1] was 7.28.
Still for that read-out and setting: the same measure for `C=C[C@@H]1C[C@]1(NC(=O)[C@@H]1C[C@@H](Oc2cc(-c3csc(NC(C)=O)n3)nc3cc(OC)ccc23)CN1C(=O)[C@@H](CC(=O)NC1CCCC1)C(C)(C)C)C(=O)O`: 7.64.
On to `C=C[C@@H]1C[C@]1(NC(=O)[C@@H]1C[C@@H](Oc2cc(-c3csc(NC(C)=O)n3)nc3cc(OC)ccc23)CN1C(=O)[C@@H](CC(=O)Nc1ccccc1)C(C)(C)C)C(=O)O`, for which, in data set [1], the pIC50 is 7.89.
The half-life is how long it takes for the measured level to halve. One may read the pEC50 as the negative decadic logarithm of the EC50, by convention in mol/L. Regarding `C=C[C@@H]1C[C@]1(NC(=O)[C@@H]1C[C@@H](Oc2cc(-c3csc(NC(C)C)n3)nc3c(Br)c(OC)ccc23)CN1C(=O)[C@@H](NC(=O)OC1CCCC1)C(C)(C)C)C(=O)O`, the half-life in data set [2] is 3.17 h; in data set [3] it was 3.5 h; in [4], more than 5 h; in data set [5] it was more than 5 h. Also, the negative-log IC50 (pIC50) in data set [1] was 8.05. Besides, the negative logarithm of the EC50 (pEC50) in data set [6] is 8.17. In [7], the Papp B→A came out at 2 ×10⁻⁶ cm/s. Moreover, the Papp A→B in data set [8] stood at 17 ×10⁻⁶ cm/s.
One may read the bioavailability as the share of a dose that reaches the circulation, judged against a reference dose that is usually intravenous. A word on the clearance: it is the volume of plasma or blood freed of the substance per unit of time. The AUC is concentration integrated over time. The term Cmax denotes the peak of the concentration-time curve. For the compound `C=C[C@@H]1C[C@]1(NC(=O)[C@@H]1C[C@@H](Oc2cc(-c3csc(NC(C)C)n3)nc3c(Br)c(OC)ccc23)CN1C(=O)[C@@H](CC(=O)NC1CCCC1)C(C)(C)C)C(=O)O`, the half-life was 0.867 h in data set [2]; 3.13 h in [3]; 2.55 h in data set [4]; 3.45 h in [5]; 1.4 h in data set [13]. The same compound yielded a bioavailability in [9] of 47%. In data set [10], this compound displayed a clearance of 22 mL/min/kg. In data set [1], this compound showed a pIC50 of 8.00. Moreover, the pEC50 in [6] is 8.46. Moreover, the Papp B→A in [7] came to 10 ×10⁻⁶ cm/s. Besides, in [11], the Vd turned out to be 1.3 L/kg. In data set [12], this compound registered an AUC of 2.1 µM·h. Also, the Papp A→B in data set [8] was 8 ×10⁻⁶ cm/s. The compound further came in with a Cmax in [14] of 850 nM.
In turn, `C=C[C@@H]1C[C@]1(NC(=O)[C@@H]1C[C@@H](Oc2nccc3cc(OC)ccc23)CN1C(=O)[C@@H](NC(=O)OC(C)(C)C)C(C)(C)C)C(=O)NS(=O)(=O)C1CC1` had a pIC50 in [1] of 8.70. The same compound gave a pEC50 in data set [6] of 8.52.
Regarding `C=C[C@@H]1C[C@]1(NC(=O)[C@@H]1C[C@@H](Oc2nccc3cc(OC)ccc23)CN1C(=O)[C@@H](CC(=O)NC(C)(C)C)C(C)(C)C)C(=O)NS(=O)(=O)C1CC1`, in data set [1], the pIC50 is 8.06. Further, in [6], the pEC50 is 6.89.
On to `C=C[C@@H]1C[C@]1(NC(=O)[C@@H]1C[C@@H](Oc2nccc3cc(OC)ccc23)CN1C(=O)[C@@H](CC(=O)Nc1ccccc1)C(C)(C)C)C(=O)NS(=O)(=O)C1CC1`, for which, in data set [1], the pIC50 was 8.77. The pEC50 in [6] was 7.19.
As a reminder, the solubility is the dissolved amount per volume that the medium holds. The compound `C=C[C@@H]1C[C@]1(NC(=O)[C@@H]1C[C@@H](Oc2cc(OCC)nc3c(Cl)cccc23)CN1C(=O)[C@@H](CC(=O)NC(C)(C)C)C(C)(C)C)C(=O)NS(=O)(=O)C1CC1` registered a half-life in data set [5] of 1.58 h. The solubility in data set [15] stood at 144 mg/mL (≈ 189 mM). In addition, the pIC50 in [1] is 9.05. In [6], this compound had a pEC50 of 7.16. Moreover, the Papp A→B in [8] turned out to be 3 ×10⁻⁶ cm/s.
Compound `C=C[C@@H]1C[C@]1(NC(=O)[C@@H]1C[C@@H](Oc2cc(OCC)nc3c(Br)c(OC)ccc23)CN1C(=O)[C@@H](CC(=O)NC(C)(C)C)C(C)(C)C)C(=O)NS(=O)(=O)C1CC1` registered a half-life in [5] of more than 5 h. The compound further returned a solubility in data set [15] of 83 mg/mL (≈ 99.4 mM). The same compound showed a pIC50 in [1] of 9.10. In data set [6], this compound had a pEC50 of 8.08. The Papp A→B in data set [8] came out at 7.1 ×10⁻⁶ cm/s.
With `C=C[C@@H]1C[C@]1(NC(=O)[C@@H]1C[C@@H](Oc2cc(OCC)nc3c(Cl)cccc23)CN1C(=O)[C@@H](CC(=O)Nc1ccccc1)C(C)(C)C)C(=O)NS(=O)(=O)C1CC1`, the results for the half-life in data set [3] and in [5] were 2.67 h and more than 5 h, respectively. This compound also displayed a solubility in data set [15] of 56 mg/mL (≈ 71.8 mM). For the same compound, the pIC50 in data set [1] is 9.10. In addition, the pEC50 in data set [6] is 8.19. Besides, in data set [8], the Papp A→B turned out to be 3.9 ×10⁻⁶ cm/s.
Regarding `C=C[C@@H]1C[C@]1(NC(=O)[C@@H]1C[C@@H](Oc2cc(OCC)nc3c(Br)c(OC)ccc23)CN1C(=O)[C@@H](CC(=O)Nc1ccccc1)C(C)(C)C)C(=O)NS(=O)(=O)C1CC1`, the half-life is more than 5 h in data set [3] and 1.52 h in data set [5]. Also, in data set [15], the solubility stood at 45 mg/mL (≈ 52.6 mM). In addition, the pIC50 in [1] was 9.40. Moreover, the pEC50 in data set [6] was 8.60. This compound displayed a concentration at 1 h in data set [16] of 100 nM. Moreover, the Papp A→B in data set [8] was determined as 2.4 ×10⁻⁶ cm/s.
In the case of `C=C[C@@H]1C[C@]1(NC(=O)[C@@H]1C[C@@H](Oc2cc(-c3ccccc3)nc3cc(OC)ccc23)CN1C(=O)[C@@H](CC(=O)N1CCCCC1)C(C)(C)C)C(=O)NS(=O)(=O)C1CC1` [SOVAPREVIR], the pEC50 in data set [17] is 7.96.
